In one data set the target is Nav 1.7 (Homo sapiens (Human), UniProt Q15858). Description: Nav 1.7 in vitro assay (IonWorks Quattro population patch-clamp). It is filed as cell-based. Particulars: 293 cells stably transfected with Nav 1.7; for IC50: 26th pulse to -20 mV, 5 Hz; for inhibition at 4.9 µM: HEK293. How it is done: (§1) Nav 1.7 and Nav 1.5 In Vitro Assay
(§2) 293 cells stably transfected with either Nav 1.7 or with Nav 1.5 were recorded in population patch-clamp mode with the IonWorks® Quattro automated electrophysiology system in accordance with the manufacturer's specifications (Molecular Devices, LLC, Sunnyvale, Calif.). Sodium channel currents were measured in response to a train of depolarizations that induced successively greater inactivation.
(§3) Cells were held at −110 mV for three seconds (Nav 1.7) or half a second (Nav 1.5) from a holding voltage of −15 mV, then put through a series of 26 pulses of 150 msec duration to −20 mV at a frequency of 5 Hz. Cells were then left unclamped for a period of 3 to 8 minutes while a single concentration of test compound was added. Cells were then reclamped and put through the same voltage protocol. Current at the end of the 26th pulse to −20 mV was subtracted from the peak current evoked by the 26th pulse to −20 mV to correct for leak current. Percent block was calculated for each concentration in duplicate, and IC50 curves were fitted to percent block as a function of concentration.
(In general: Patch clamp records ionic current or voltage across a cell membrane.)

A further data set addresses Nav 1.5 (Homo sapiens (Human), UniProt Q14524). Description: Nav 1.5 in vitro assay (IonWorks Quattro population patch-clamp). Type of data set: cell-based. Particulars: 293 cells stably transfected with Nav 1.5; 26th pulse to -20 mV, 5 Hz. How it is done:
as §1, §2, §3

The source of these data is patent publication US9079902B2, “Heteroaryl sodium channel inhibitors” (AMGEN INC., priority 2011, dated 2015).

Counter-ions that a name gives are not always drawn.

Sequence of Nav 1.7 (Q15858 whole entry): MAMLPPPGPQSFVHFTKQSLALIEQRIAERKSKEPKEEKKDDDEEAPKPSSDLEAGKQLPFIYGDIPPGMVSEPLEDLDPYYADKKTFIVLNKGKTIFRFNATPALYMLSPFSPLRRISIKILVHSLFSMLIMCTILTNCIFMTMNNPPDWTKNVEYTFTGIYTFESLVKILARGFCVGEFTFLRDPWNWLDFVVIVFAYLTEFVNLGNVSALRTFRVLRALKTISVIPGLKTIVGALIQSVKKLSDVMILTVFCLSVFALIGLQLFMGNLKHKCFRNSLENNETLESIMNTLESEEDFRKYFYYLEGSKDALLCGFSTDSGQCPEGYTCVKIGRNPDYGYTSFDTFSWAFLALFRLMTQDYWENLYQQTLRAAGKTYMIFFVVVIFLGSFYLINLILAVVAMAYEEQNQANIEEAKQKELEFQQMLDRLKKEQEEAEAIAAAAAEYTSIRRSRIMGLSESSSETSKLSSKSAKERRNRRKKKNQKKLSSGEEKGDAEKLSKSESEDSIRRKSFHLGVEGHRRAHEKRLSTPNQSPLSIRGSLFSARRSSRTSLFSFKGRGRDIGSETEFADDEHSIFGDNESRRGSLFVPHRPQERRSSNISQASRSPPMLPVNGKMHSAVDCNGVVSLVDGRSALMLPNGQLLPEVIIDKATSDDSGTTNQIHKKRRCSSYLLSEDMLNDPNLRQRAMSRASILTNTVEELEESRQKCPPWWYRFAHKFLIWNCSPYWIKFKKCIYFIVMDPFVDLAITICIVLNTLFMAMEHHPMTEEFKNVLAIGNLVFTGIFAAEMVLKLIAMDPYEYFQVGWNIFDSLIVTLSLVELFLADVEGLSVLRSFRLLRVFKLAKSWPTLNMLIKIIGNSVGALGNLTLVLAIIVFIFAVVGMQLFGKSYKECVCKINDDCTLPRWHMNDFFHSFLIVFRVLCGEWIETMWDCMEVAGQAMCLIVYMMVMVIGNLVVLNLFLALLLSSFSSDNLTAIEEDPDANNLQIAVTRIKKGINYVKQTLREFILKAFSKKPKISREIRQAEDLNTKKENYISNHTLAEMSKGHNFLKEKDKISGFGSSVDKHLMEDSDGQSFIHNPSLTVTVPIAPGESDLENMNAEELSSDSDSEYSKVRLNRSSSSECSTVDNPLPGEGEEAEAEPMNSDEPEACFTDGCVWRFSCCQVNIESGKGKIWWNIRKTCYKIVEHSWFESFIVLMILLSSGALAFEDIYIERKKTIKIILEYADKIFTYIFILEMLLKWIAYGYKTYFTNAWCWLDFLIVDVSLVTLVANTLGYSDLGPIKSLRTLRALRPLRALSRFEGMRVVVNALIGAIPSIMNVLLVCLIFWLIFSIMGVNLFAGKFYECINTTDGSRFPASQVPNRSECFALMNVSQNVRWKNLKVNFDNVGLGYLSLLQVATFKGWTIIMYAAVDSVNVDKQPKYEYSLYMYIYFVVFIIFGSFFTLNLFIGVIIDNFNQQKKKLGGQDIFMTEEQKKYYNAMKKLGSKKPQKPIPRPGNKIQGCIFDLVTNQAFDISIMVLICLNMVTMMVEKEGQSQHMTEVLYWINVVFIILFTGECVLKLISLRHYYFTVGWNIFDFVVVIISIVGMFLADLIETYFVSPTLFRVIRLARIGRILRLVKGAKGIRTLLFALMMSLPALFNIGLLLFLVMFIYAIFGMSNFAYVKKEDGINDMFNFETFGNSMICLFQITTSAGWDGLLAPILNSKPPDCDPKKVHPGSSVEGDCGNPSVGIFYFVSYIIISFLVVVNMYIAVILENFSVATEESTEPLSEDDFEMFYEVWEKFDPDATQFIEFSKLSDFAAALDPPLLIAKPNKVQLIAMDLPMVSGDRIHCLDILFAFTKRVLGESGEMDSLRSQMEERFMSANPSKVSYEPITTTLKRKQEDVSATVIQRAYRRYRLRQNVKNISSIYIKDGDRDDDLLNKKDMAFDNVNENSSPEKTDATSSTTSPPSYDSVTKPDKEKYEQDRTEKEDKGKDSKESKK
Sequence of Nav 1.5 (Q14524 whole entry): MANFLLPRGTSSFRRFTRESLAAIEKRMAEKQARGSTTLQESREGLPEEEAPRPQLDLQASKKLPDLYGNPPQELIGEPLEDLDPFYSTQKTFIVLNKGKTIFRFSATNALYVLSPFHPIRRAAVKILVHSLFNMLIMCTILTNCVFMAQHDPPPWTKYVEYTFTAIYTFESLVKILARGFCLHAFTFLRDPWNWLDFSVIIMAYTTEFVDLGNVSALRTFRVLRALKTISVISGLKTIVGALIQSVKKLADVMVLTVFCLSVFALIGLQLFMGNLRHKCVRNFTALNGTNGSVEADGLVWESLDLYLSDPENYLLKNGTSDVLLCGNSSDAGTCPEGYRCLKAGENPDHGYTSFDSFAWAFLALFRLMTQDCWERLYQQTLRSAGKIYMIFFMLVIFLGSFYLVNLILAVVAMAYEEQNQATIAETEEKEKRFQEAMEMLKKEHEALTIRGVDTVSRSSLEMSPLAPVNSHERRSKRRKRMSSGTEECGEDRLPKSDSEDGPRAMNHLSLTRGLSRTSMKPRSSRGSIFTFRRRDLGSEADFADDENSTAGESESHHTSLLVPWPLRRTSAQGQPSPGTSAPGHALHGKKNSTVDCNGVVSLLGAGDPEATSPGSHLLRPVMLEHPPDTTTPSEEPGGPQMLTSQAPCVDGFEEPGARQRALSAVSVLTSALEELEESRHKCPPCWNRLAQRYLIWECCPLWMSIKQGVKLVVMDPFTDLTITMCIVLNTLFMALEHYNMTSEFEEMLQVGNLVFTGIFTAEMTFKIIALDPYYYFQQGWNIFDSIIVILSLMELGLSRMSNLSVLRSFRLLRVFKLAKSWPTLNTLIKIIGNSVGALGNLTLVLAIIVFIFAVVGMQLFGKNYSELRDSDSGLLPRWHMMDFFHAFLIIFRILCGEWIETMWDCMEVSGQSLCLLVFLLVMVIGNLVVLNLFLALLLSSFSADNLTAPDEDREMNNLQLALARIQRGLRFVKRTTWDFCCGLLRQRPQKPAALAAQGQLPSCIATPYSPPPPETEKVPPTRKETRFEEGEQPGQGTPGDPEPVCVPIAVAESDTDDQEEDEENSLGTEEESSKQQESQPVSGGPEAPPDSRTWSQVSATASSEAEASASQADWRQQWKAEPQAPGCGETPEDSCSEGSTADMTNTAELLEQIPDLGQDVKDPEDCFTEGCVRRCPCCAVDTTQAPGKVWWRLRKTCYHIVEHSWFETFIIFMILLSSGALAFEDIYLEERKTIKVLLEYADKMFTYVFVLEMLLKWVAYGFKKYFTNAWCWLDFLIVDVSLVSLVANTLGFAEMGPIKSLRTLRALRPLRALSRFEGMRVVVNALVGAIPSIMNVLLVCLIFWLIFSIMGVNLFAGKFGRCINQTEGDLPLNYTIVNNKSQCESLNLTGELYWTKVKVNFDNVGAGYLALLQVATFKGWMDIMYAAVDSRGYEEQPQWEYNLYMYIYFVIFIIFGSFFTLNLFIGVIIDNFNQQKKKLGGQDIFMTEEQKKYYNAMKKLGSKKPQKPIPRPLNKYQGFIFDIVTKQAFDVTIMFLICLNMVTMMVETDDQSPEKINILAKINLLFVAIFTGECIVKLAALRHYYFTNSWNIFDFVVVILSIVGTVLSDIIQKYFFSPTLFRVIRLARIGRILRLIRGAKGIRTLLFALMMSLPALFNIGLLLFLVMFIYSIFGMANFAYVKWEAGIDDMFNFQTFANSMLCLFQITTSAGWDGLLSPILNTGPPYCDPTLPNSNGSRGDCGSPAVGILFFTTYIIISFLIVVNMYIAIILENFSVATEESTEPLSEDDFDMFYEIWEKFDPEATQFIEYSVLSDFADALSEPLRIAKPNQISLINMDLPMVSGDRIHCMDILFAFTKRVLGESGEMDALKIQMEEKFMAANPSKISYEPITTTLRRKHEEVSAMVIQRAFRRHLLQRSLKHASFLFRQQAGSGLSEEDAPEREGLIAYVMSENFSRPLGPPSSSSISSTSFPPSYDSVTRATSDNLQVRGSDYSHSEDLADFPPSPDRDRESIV

Turning to `Cn1cc(-c2cccc3c2CNCC3)c2ccc(S(=O)(=O)Nc3ncns3)cc21` [Example 54, 1-Methyl-3-(1,2,3,4-Tetrahydroisoquinolin-8-Yl)-N-(1,2,4-Thiadiazol-5-Yl)-1H-Indole-6-Sulfonamide Hydrochloride], the results for the IC50 against Nav 1.7 and at Nav 1.5 were 1.63 µM and over 10 µM, respectively.
For the compound `Cn1cc(-c2cnn(C3CC3)c2)c2ccc(S(=O)(=O)Nc3ncns3)cc21` [Example 55, 3-(1-Cyclopropyl-1H-Pyrazol-4-Yl)-1-Methyl-N-(1,2,4-Thiadiazol-5-Yl)-1H-Indole-6-Sulfonamide], on Nav 1.7, the inhibition at 4.9 µM turned out to be 20.5%. The same compound yielded an IC50 against Nav 1.5 of over 10 µM.
Regarding `COc1cc(-c2cn(C)c3cc(S(=O)(=O)Nc4ncns4)ccc23)c(F)cn1` [Example 56, 3-(5-Fluoro-2-Methoxypyridin-4-Yl)-1-Methyl-N-(1,2,4-Thiadiazol-5-Yl)-1H-Indole-6-Sulfonamide], the inhibition at 4.9 µM against Nav 1.7 was determined as 20.8%. The IC50 at Nav 1.5 is over 10 µM.
On the same counts, the results for `Cn1cc(-c2ccc(C(F)(F)F)cc2)c2ccc(S(=O)(=O)Nc3ncns3)cc21` [Example 57, 1-Methyl-N-(1,2,4-Thiadiazol-5-Yl)-3-(4-(Trifluoromethyl)Phenyl)-1H-Indole-6-Sulfonamide] are 23.3% and over 10 µM.
Taken in the same sequence, the figures for `Cn1cc(-c2ccccc2OC(F)(F)F)c2ccc(S(=O)(=O)Nc3ncns3)cc21` [Example 58, 1-Methyl-N-(1,2,4-Thiadiazol-5-Yl)-3-(2-(Trifluoromethoxy)Phenyl)-1H-Indole-6-Sulfonamide] were 25.1% and over 10 µM.
Taken in the same sequence, the figures for `Cn1cc(-c2cc3ccccc3o2)c2ccc(S(=O)(=O)Nc3ncns3)cc21` [Example 59, 3-(Benzofuran-2-Yl)-1-Methyl-N-(1,2,4-Thiadiazol-5-Yl)-1H-Indole-6-Sulfonamide] were 36.2% and over 10 µM.
`COc1ccc(-c2cn(C)c3cc(S(=O)(=O)Nc4ncns4)ccc23)cc1C#N` [Example 60, 3-(3-Cyano-4-Methoxyphenyl)-1-Methyl-N-(1,2,4-Thiadiazol-5-Yl)-1H-Indole-6-Sulfonamide]: on Nav 1.7, the inhibition at 4.9 µM was 24.7%. The same compound yielded an IC50 against Nav 1.5 of over 10 µM.
Taken in the same sequence, the figures for `COc1ccc(-c2cn(C)c3cc(S(=O)(=O)Nc4ncns4)ccc23)cn1` [Example 61, 3-(6-Methoxypyridin-3-Yl)-1-Methyl-N-(1,2,4-Thiadiazol-5-Yl)-1H-Indole-6-Sulfonamide] were 37.2% and over 10 µM.
As to `Cn1nccc1-c1cc(Cl)ccc1-n1cnc2cc(S(=O)(=O)Nc3ncns3)ccc21` [Example 62, 1-(4-Chloro-2-(1-Methyl-1H-Pyrazol-5-Yl)Phenyl)-N-(1,2,4-Thiadiazol-5-Yl)-1H-Benzo[D]Imidazole-5-Sulfonamide], the IC50 is 2.68 µM against Nav 1.7 and over 10 µM on Nav 1.5.
Taken in the same sequence, the figures for `Cn1nccc1-c1cc(C(F)(F)F)ccc1-n1cnc2cc(S(=O)(=O)Nc3ncns3)ccc21` [Example 63, 1-(2-(1-Methyl-1H-Pyrazol-5-Yl)-4-(Trifluoromethyl)Phenyl)-N-(1,2,4-Thiadiazol-5-Yl)-1H-Benzo[D]Imidazole-5-Sulfonamide] were 1.13 µM and over 10 µM.
Take `Cn1cc(-c2ccc(C(F)(F)F)cc2C2=CCNCC2)c2ccc(S(=O)(=O)Nc3nccs3)cc21` [Example 65, 1-Methyl-3-(2-(1,2,3,6-Tetrahydropyridin-4-Yl)-4-(Trifluoromethyl)Phenyl)-N-(Thiazol-2-Yl)-1H-Indole-6-Sulfonamide 2,2,2-Trifluoroacetate]: the IC50 was 0.269 µM against Nav 1.7 and over 10 µM against Nav 1.5.
With `Cn1cc(-c2ccc(C(F)(F)F)cc2C2=CCNCC2)c2ccc(S(=O)(=O)Nc3cscn3)cc21` [Example 66, 1-Methyl-3-(2-(1,2,3,6-Tetrahydropyridin-4-Yl)-4-(Trifluoromethyl)Phenyl)-N-(Thiazol-4-Yl)-1H-Indole-6-Sulfonamide], the IC50 at Nav 1.7 was 1.41 µM; against Nav 1.5 it was over 10 µM.

One may read the IC50 as the midpoint of a concentration-inhibition curve. Read a high IC50 as lower potency. What is called inhibition is the percentage by which the read-out fell short of the control. Read a high inhibition as strong suppression.
